Measurements: ChEMBL document CHEMBL4699525, “Design and synthesis of new indanol-1,2,3-triazole derivatives as potent antitubercular and antimicrobial agents” (Bioorg Med Chem Lett, 2020)
The source made the active and inactive calls.

Columns and labels:
[1] = target: T1, Enoyl-[acyl-carrier-protein] reductase [NADH] (Mycobacterium tuberculosis) (UniProt P9WGR1); assay: Inhibition of InhA in Mycobacterium tuberculosis H37Rv assessed antitubercular activity by measuring inhibition of bacterial growth incubated for 7 days by MABA assay; conditions: time 7.0 day
T1 sequence (whole entry): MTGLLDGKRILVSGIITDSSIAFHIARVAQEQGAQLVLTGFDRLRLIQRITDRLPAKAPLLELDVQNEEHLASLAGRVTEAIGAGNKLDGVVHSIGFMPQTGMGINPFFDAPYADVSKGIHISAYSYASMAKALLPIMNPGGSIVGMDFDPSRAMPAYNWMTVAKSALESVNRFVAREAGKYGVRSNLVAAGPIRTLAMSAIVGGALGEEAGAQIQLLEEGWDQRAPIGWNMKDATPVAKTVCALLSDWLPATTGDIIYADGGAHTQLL

Pseudomonas aeruginosa = assay: Antibacterial activity against Pseudomonas aeruginosa assessed as inhibition of bacterial growth incubated for 24 hrs by agar well diffusion method; type: functional
Aspergillus niger = assay: Antifungal activity against Aspergillus niger assessed as inhibition of fungal growth incubated for 24 hrs by agar well diffusion method; type: functional
Saccharomyces cerevisiae = assay: Antifungal activity against Saccharomyces cerevisiae assessed as inhibition of fungal growth incubated for 24 hrs by agar well diffusion method; type: functional
[2] = test system: Salmonella enterica subsp. enterica serovar Abony; assay: Antibacterial activity against Salmonella abony assessed as inhibition of bacterial growth incubated for 24 hrs by agar well diffusion method; type: functional
Shigella boydii = assay: Antibacterial activity against Shigella boydii assessed as inhibition of bacterial growth incubated for 24 hrs by agar well diffusion method; type: functional
Candida albicans = assay: Antifungal activity against Candida albicans assessed as inhibition of fungal growth incubated for 24 hrs by agar well diffusion method; type: functional
Bacillus cereus = assay: Antibacterial activity against Bacillus cereus assessed as inhibition of bacterial growth incubated for 24 hrs by agar well diffusion method; type: functional
Bacillus subtilis = assay: Antibacterial activity against Bacillus subtilis assessed as inhibition of bacterial growth incubated for 24 hrs by agar well diffusion method; type: functional
Staphylococcus aureus = assay: Antibacterial activity against Staphylococcus aureus assessed as inhibition of bacterial growth incubated for 24 hrs by agar well diffusion method; type: functional
Salmonella typhi = assay: Antibacterial activity against Salmonella typhi assessed as inhibition of bacterial growth incubated for 24 hrs by agar well diffusion method; type: functional; conditions: Salmonella enterica subsp. enterica serovar Typhi
Escherichia coli = assay: Antibacterial activity against Escherichia coli assessed as inhibition of bacterial growth incubated for 24 hrs by agar well diffusion method; type: functional
Klebsiella aerogenes = assay: Antibacterial activity against Enterobacter aerogenes assessed as inhibition of bacterial growth incubated for 24 hrs by agar well diffusion method; type: functional

O=C(O)c1cn(C2CC2)c2cc(N3CCNCC3)c(F)cc2c1=O
1.56 µM: MIC [1]

CCc1ccc(NC(=O)Cn2cc(COc3ccc4c(c3)CCC4)nn2)cc1
inactive: diameter of the inhibition zone (DIZ) (Pseudomonas aeruginosa) | diameter of the inhibition zone (DIZ) (Aspergillus niger) | diameter of the inhibition zone (DIZ) (Saccharomyces cerevisiae) | diameter of the inhibition zone (DIZ) [2] | diameter of the inhibition zone (DIZ) (Candida albicans) | diameter of the inhibition zone (DIZ) (Bacillus cereus) | diameter of the inhibition zone (DIZ) (Bacillus subtilis) | diameter of the inhibition zone (DIZ) (Staphylococcus aureus) | diameter of the inhibition zone (DIZ) (Salmonella typhi) | diameter of the inhibition zone (DIZ) (Escherichia coli) | diameter of the inhibition zone (DIZ) (Klebsiella aerogenes)
11 mm: diameter of the inhibition zone (DIZ) (Shigella boydii)
> 25 µM: MIC [1]

Cc1ccccc1NC(=O)Cn1cc(COc2ccc3c(c2)CCC3)nn1
inactive: diameter of the inhibition zone (DIZ) (Pseudomonas aeruginosa) | diameter of the inhibition zone (DIZ) (Aspergillus niger) | diameter of the inhibition zone (DIZ) (Saccharomyces cerevisiae) | diameter of the inhibition zone (DIZ) [2] | diameter of the inhibition zone (DIZ) (Candida albicans) | diameter of the inhibition zone (DIZ) (Bacillus cereus) | diameter of the inhibition zone (DIZ) (Bacillus subtilis) | diameter of the inhibition zone (DIZ) (Staphylococcus aureus) | diameter of the inhibition zone (DIZ) (Salmonella typhi) | diameter of the inhibition zone (DIZ) (Escherichia coli) | diameter of the inhibition zone (DIZ) (Klebsiella aerogenes)
11 mm: diameter of the inhibition zone (DIZ) (Shigella boydii)
> 25 µM: MIC [1]

Cc1ccc(-n2cc(COc3ccc4c(c3)CCC4)nn2)cc1
12 mm: diameter of the inhibition zone (DIZ) (Candida albicans)
> 25 µM: MIC [1]
inactive: diameter of the inhibition zone (DIZ) (Pseudomonas aeruginosa) | diameter of the inhibition zone (DIZ) (Aspergillus niger) | diameter of the inhibition zone (DIZ) (Saccharomyces cerevisiae) | diameter of the inhibition zone (DIZ) [2] | diameter of the inhibition zone (DIZ) (Shigella boydii) | diameter of the inhibition zone (DIZ) (Bacillus cereus) | diameter of the inhibition zone (DIZ) (Bacillus subtilis) | diameter of the inhibition zone (DIZ) (Staphylococcus aureus) | diameter of the inhibition zone (DIZ) (Salmonella typhi) | diameter of the inhibition zone (DIZ) (Escherichia coli) | diameter of the inhibition zone (DIZ) (Klebsiella aerogenes)

Cc1cc([N+](=O)[O-])ccc1NC(=O)Cn1cc(COc2ccc3c(c2)CCC3)nn1
inactive: diameter of the inhibition zone (DIZ) (Pseudomonas aeruginosa) | diameter of the inhibition zone (DIZ) (Aspergillus niger) | diameter of the inhibition zone (DIZ) (Saccharomyces cerevisiae) | diameter of the inhibition zone (DIZ) [2] | diameter of the inhibition zone (DIZ) (Candida albicans) | diameter of the inhibition zone (DIZ) (Bacillus cereus) | diameter of the inhibition zone (DIZ) (Bacillus subtilis) | diameter of the inhibition zone (DIZ) (Staphylococcus aureus) | diameter of the inhibition zone (DIZ) (Salmonella typhi) | diameter of the inhibition zone (DIZ) (Escherichia coli) | diameter of the inhibition zone (DIZ) (Klebsiella aerogenes)
> 25 µM: MIC [1]

O=C(Cn1cc(COc2ccc3c(c2)CCC3)nn1)Nc1ccccc1Cl
> 25 µM: MIC [1]
inactive: diameter of the inhibition zone (DIZ) (Pseudomonas aeruginosa) | diameter of the inhibition zone (DIZ) (Aspergillus niger) | diameter of the inhibition zone (DIZ) (Saccharomyces cerevisiae) | diameter of the inhibition zone (DIZ) [2] | diameter of the inhibition zone (DIZ) (Candida albicans) | diameter of the inhibition zone (DIZ) (Bacillus cereus) | diameter of the inhibition zone (DIZ) (Bacillus subtilis) | diameter of the inhibition zone (DIZ) (Staphylococcus aureus) | diameter of the inhibition zone (DIZ) (Salmonella typhi) | diameter of the inhibition zone (DIZ) (Escherichia coli) | diameter of the inhibition zone (DIZ) (Klebsiella aerogenes)

CC[C@@H](CO)NCCN[C@@H](CC)CO
3.12 µM: MIC [1]
